The results in this text go back to patent publication US5885987A, “Phenylene derivatives” (Kowa Co., Ltd., priority 1996, dated 1999).

Structures are written as SMILES. pKd: −log10 of the molar value.

The target in one experiment is T1, LTD4 receptor (Cavia porcellus, UniProt Q2NNR5).
T1 construct: guinea pig pulmomembranous protein; from tissue; host or cells: guinea pig lung membranes
T1 sequence (Q2NNR5 1-340): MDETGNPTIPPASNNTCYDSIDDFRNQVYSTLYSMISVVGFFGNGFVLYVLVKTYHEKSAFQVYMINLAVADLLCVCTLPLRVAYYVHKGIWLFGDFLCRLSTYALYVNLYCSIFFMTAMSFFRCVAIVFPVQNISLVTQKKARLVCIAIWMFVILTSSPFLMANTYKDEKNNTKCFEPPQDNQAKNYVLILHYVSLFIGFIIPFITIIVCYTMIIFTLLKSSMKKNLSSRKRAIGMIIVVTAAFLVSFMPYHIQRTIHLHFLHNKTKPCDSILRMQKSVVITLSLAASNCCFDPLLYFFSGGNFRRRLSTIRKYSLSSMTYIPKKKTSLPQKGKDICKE
Briefly: LTD4 receptor binding inhibition test ([^3 H]leukotriene D4, guinea pig pulmomembranous protein). The conditions noted are these: a: 100 μM; read-out: LTD4 receptor (%), inhibition rate. The method, then:
2) LTD4 Receptor Binding Inhibition Test
An ice-cooled tris hydrochloride/sodium chloride buffer (10 mM/100 mM, pH 7.5) was added to terminate the reaction, followed by immediate filtration through a Wattman CF/C filter. The filter was washed twice with 20 ml aliguots of the ice-cooled buffer. The radioactivity of the residue was measured by a liquid scintillation counter. […] In a binding assay, 2 μM leukotriene D4 was used for the measurement of a nonspecific binding.
For `Cc1ccc(OCc2cccc(OCc3ccc4ccccc4n3)c2)c2cc(Cl)c(=O)[nH]c12` [Example 4], the inhibition at 100 µM came out at 0%.
Turning to `Cc1ccc(OCc2ccc(OCc3ccc4ccccc4n3)cc2)c2cc(C#N)c(=O)[nH]c12` [Example 19, 3-Cyano-8-methyl-5-[4-(2-quinolinylmethoxy)benzyloxy]-1,2-dihydroquinolin-2-one], the inhibition at 100 µM came out at 0%.
Same read-out and setting: in the case of `Cc1ccc(OCc2ccc(OCc3ccc4ccccc4n3)cc2)c2cc(Cl)c(=O)[nH]c12` [Example 20, 3-Chloro-8-methyl-5-[4-(2-quinolinylmethoxy)benzyloxy]-1,2-dihydroquinolin-2-one] it was 0%; in that of `O=C1CSc2cc(OC(=O)c3cccc(OCc4ccc5ccccc5n4)c3)ccc2N1` [Example 58, 7-[3-(2-Quinolinylmethoxy]benzoyloxy]-3,4-dihydro-2H-1,4-benzothiazin-3-one], 0%.

Staying with this experiment, now noted: concentration not given.
With `Cc1ccc(OC(=O)c2ccc(OCc3ccc4ccccc4n3)cc2)c2cc(C#N)c(=O)[nH]c12` [Example 62, 3-Cyano-8-methyl-5-[4-(2-quinolinylmethoxy)benzoyloxy]-1,2-dihydroquinolin-2-one], the “LTD4 receptor (%), inhibition rate” value was 0%.

The experiment is the same for the next values; noted with them: read-out: LTD4 receptor, dissociation constant KD.
On to `N#Cc1cc2cc(OCc3cccc(OCc4ccc5ccccc5n4)c3)ccc2[nH]c1=O` [Example 1, 3-cyano-6-[3-(2-quinolinylmethoxy)benzyloxy]-1,2-dihydroquinolin-2-one], for which the pKd was 6.93.
For `Cc1ccc(OCc2cccc(OCc3ccc4ccccc4n3)c2)c2ccc(=O)[nH]c12` [Example 2, 8-Methyl-5-[3-(2-quinolinylmethoxy)benzyloxy]-1,2-dihydroquinolin-2-one], the pKd is 5.81.
Same read-out and setting: in the case of `Cc1ccc(OCc2cccc(OCc3ccc4ccccc4n3)c2)c2c1NC(=O)C2(C)C` [Example 13, 4-[3-(2-Quinolinylmethoxy)benzyloxy]-3,3,7-trimethyl-2,3-dihydro-1H-indol-2-one] it was 6.52; in that of `O=C1CSc2cc(OCc3ccc(OCc4ccc5ccccc5n4)cc3)ccc2N1` [Example 26, 7-[4-(2-Quinolinylmethoxy)benzyloxy]-3,4-dihydro-2H-1,4-benzothiazin-3-one], 3.26; in that of `Cc1ccc(OCc2cccc(OCc3ccc4ccccc4n3)c2)c2cc(-c3nn[nH]n3)c(=O)[nH]c12` [Example 47, 8-methyl-5-[3-(2-quinolinylmethoxy)benzyloxy]-3-(5-tetrazolyl)-1,2-dihydroquinolin-2-one], 6.47.
In the case of `Cc1ccc(OCc2ccc(OCc3ccc4ccccc4n3)cc2)c2cc(-c3nn[nH]n3)c(=O)[nH]c12` [Example 48, 8-methyl-5-[4-(2-quinolinylmethoxy)benzyloxy]-3-(5-tetrazolyl)-1,2-dihydroquinolin-2-one], the pKd was 6.52.
Same read-out and setting: in the case of `Cc1ccc(OCc2cccc(OCc3ccc4ccccc4n3)c2)c2c1NC(=S)C2(C)C` [Example 49, 4-[3-(2-quinolinylmethoxy)benzyloxy]-3,3,7-trimethyl-2,3-dihydro-1H-indol-2-thione] it was 4.40; in that of `O=C(O)c1cc2cc(OCc3cccc(OCc4ccc5ccccc5n4)c3)ccc2[nH]c1=O` [Example 50, 2-oxo-6-[3-(2-quinolinylmethoxy)benzyloxy]-1,2-dihydroquinoline-3-carboxylic acid], 5.97.
Same read-out and setting: in the case of `Cc1ccc(OCc2cccc(OCc3ccc4ccccc4n3)c2)c2cc(C(=O)O)c(=O)[nH]c12` [Example 51, 8-methyl-2-oxo-5-[3-(2-quinolinylmethoxy)benzyloxy]-1,2-dihydroquinoline-3-carboxylic acid] it was 4.93.
On the same count and under the same terms, for `Cc1ccc(OCc2ccc(OCc3ccc4ccccc4n3)cc2)c2cc(C(=O)O)c(=O)[nH]c12` [Example 52, 8-methyl-2-oxo-5-[4-(2-quinolinylmethoxy)benzyloxy]-1,2-dihydroquinoline-3-carboxylic acid] the value was 6.52.
